From patent US11045457B2, “Piperidinyl-3-(aryloxy)propanamides and propanoates” (priority 2018, dated 2021)

What was measured:
[1] = target: T1, SSTR4 (Homo sapiens (Human), UniProt P31391); experiment: Inhibition of forskolin stimulated cAMP in CHO-K1 cells overexpressing SSTR4; format: cell-based
In short: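 Read-out is a HTRF LANCE Ultra cAMP competition using Eu-labelled streptavidin and biotin-cAMP, incubated 60 min at room temperature. It followed a 30 min room-temperature exposure of Kreb's Ringer-washed cells to compound plus forskolin. Potency is expressed as pEC50.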

[2] = target: T1, SSTR4; experiment: SSTR4 I-125 somatostatin competition binding assay (membranes from CHO-K1 cells overexpressing SSTR4); conditions: competition with I-125 labeled somatostatin
Description: Membranes from CHO-K1 cells overexpressing SSTR4 are purchased from Perkin Elmer (catalog number ES-524-M400UA). Test compounds are suspended in DMSO and then diluted in assay buffer (25 mM HEPES pH 7.4, 10 mM MgCl2, 1 mM CaCl2), 0.5% BSA) plus 0.2 nM I-125 labeled somatostatin (Perkin Elmer catalog number NEX389). […] Then 1 μg of SSTR4 membranes in 50 μL assay buffer are added per well. The Plate is incubated for 60 minutes at room temperature. FilterMat A filters (Perkin Elmer catalog number 1450-421) are pre-soaked in 0.5% PEI (Sigma catalog number P3143). The contents of the assay plate are transferred to filters with a TomTech harvester and washed 5 times with 20 mM HEPES, 100 mM NaCl. The filters are dried in a microwave oven then transferred to sample bag containing a scintillator sheet (Perkin Elmer catalog number 1450-441). The scintillator sheets are melted to filters using a heat block. The filters are then read in a MicroBeta scintillation counter. Binding Ki curves are generated using Activity Base for Screening Data Management and the results are reported as pIC50.

T1 sequence (P31391 whole entry): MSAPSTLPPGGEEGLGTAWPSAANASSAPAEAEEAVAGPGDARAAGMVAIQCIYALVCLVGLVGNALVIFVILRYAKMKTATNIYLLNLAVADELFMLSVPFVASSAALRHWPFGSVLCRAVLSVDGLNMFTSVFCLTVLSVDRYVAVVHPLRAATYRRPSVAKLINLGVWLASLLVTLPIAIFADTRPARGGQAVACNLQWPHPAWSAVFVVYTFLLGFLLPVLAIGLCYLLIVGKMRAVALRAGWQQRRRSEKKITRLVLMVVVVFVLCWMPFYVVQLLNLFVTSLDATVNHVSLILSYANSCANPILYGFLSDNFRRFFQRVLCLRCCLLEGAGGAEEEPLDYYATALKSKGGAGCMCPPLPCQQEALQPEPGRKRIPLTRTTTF

Structure (SMILES) | SSTR4 Activity pEC50 [1] | SSTR4 Binding pIC50 [2] | EC50 ([1]; read-out: SSTR4 Activity pEC50 (converted)) [nM] | IC50 ([2]; read-out: SSTR4 Binding pIC50 (converted)) [nM]
Cc1cnc(OCC(C)(C)C(=O)N[C@H]2CCN(C)C[C@@H]2C)c(C)c1 [Example 141, N-((3S,4S)-1,3-dimethylpiperidin-4-yl)-3-((3,5-dimethylpyridin-2-yl)oxy)-2,2-dimethylpropanamide] | 7.4 | 6.8 |  | 
C[C@@H]1C[C@H](NC(=O)C(C)(C)COc2ncccc2C(F)(F)F)CCN1C [Example 176] | 7.7 | 7.1 |  | 
CC[C@@H]1CN(C)CC[C@H]1NC(=O)C(C)(C)COc1ncccc1OC(F)(F)F (racemic) [Example 115, N-(trans-3-ethyl-1-methylpiperidin-4-yl)-2,2-dimethyl-3-((3-(trifluoromethoxy)pyridin-2-yl)oxy)propanamide] |  |  | 0.631 | 5.01
C[C@@H]1CN(C)CC[C@H]1NC(=O)C(C)(C)COc1ncccc1C(F)(F)F (relative stereo) [Example 109, trans-N-(1,3-dimethylpiperidin-4-yl)-2,2-dimethyl-3-((3-(trifluoromethyl)pyridin-2-yl)oxy)propanamide] | 8.0 | 7.0 |  | 
O=C(N[C@H]1CCNC[C@@H]1F)C(F)(F)COc1ncccc1OC(F)(F)F [Example 207, 2,2-difluoro-N-((3S,4S)-3-fluoropiperidin-4-yl)-3-((3-(trifluoromethoxy)pyridin-2-yl)oxy)propanamide] | 8.1 | 7.6 |  | 
CC[C@@H]1CN(C)CC[C@@H]1NC(=O)C(C)(C)COc1ncccc1C(F)(F)F (relative stereo) [Example 111, cis-N-(3-ethyl-1-methylpiperidin-4-yl)-2,2-dimethyl-3-((3-(trifluoromethyl)pyridin-2-yl)oxy)propanamide] | 7.7 | 6.7 |  | 

The remaining lines, values ahead:

SSTR4 Activity pEC50 [1] | SSTR4 Binding pIC50 [2] | EC50 ([1]; read-out: SSTR4 Activity pEC50 (converted)) [nM] | IC50 ([2]; read-out: SSTR4 Binding pIC50 (converted)) [nM] | Structure (SMILES)
8.3 | 7.2 |  |  | C[C@@H]1CN(C)CC[C@H]1NC(=O)C(C)(C)COc1ncccc1C1CC1 (relative stereo) [Example 20, trans-3-((3-cyclopropylpyridin-2-yl)oxy)-N-(1,3-dimethylpiperidin-4-yl)-2,2-dimethylpropanamide]
7.5 | 6.2 |  |  | CC[C@@H]1CN(C)CC[C@@H]1NC(=O)C(C)(C)COc1ncccc1OC(F)(F)F (relative stereo) [Example 116, N-(cis-3-ethyl-1-methylpiperidin-4-yl)-2,2-dimethyl-3-((3-(trifluoromethoxy)pyridin-2-yl)oxy)propanamide]
7.6 | 6.0 |  |  | C[C@@H]1CN(CC#N)CC[C@H]1NC(=O)C(C)(C)COc1ncccc1OC(F)(F)F (relative stereo) [Example 184, trans-N-(1-(cyanomethyl)-3-methylpiperidin-4-yl)-2,2-dimethyl-3-((3-(trifluoromethoxy)pyridin-2-yl)oxy)propanamide]
8.4 | 7.5 |  |  | C[C@@H]1CN(C)CC[C@H]1NC(=O)C(C)(C)COc1ncccc1OC(F)(F)F (single isomer, unassigned) [Example 13, trans-N-(1,3-dimethylpiperidin-4-yl)-2,2-dimethyl-3-((3-(trifluoromethoxy)pyridin-2-yl)oxy)propanamide]
7.7 | 6.7 |  |  | C[C@@H]1C[C@H](NC(=O)C(F)(F)COc2ncccc2OC(F)(F)F)CCN1C [Example 206, N-((2R,4R)-1,2-dimethylpiperidin-4-yl)-2,2-difluoro-3-((3-(trifluoromethoxy)pyridin-2-yl)oxy)propanamide]
6.7 | 6.0 |  |  | COc1cccnc1OCC(C)(C)C(=O)NC1CCN(C)CC1 [Example 49, 3-((3-methoxypyridin-2-yl)oxy)-2,2-dimethyl-N-(1-methylpiperidin-4-yl)propanamide]
